The values below come from patent publication US20160015064A1, “COMPOUNDS, COMPOSITIONS, AND METHODS FOR MODULATING SWEET TASTE” (CHROMOCELL CORPORATION, priority 2013, published 2016).

Where a name gives a salt, the structure may show the parent alone.

What all share (type): in vivo, humans
Assay [1] has as its system perception of the sweet taste of an aqueous solution of sweetener. The experiment in a line: Ranking sip and spit test of sweetness perception (R index). Conditions: 5% sucrose test sample, vs negative control. The protocol: The effect of the test compounds on the perception of the sweet taste of an aqueous solution of sweetener in humans was evaluated using a ranking “sip and spit” method.
(§1) The aqueous sweetener solutions were prepared by adding, fructose, sucrose or glucose (by weight), to water to achieve the desired concentration.
Compounds were first prepared as a 500-fold concentrated stock solution in 100% ethanol. These concentrated stocks were then added to the aqueous sweetener solutions to result in a final ethanol concentration of 0.2%. The control (positive and negative) samples were also normalized to 0.2% ethanol.
In the ranking test used for compound evaluation, taste panelists (n=15), rank samples in increasing order of sweetness. One set, comprising of 6 samples, was presented to each panelists at a given time and are asked to rank them in order of increasing sweetness.
Panelists were instructed not to eat or drink (except water) for at least 1 h before the test. During the test, panelists were instructed to sip each sample, swirl it around their mouth and then expectorate. After tasting each set, panelists were instructed to rank the 6 samples within the set from least sweet to most sweet. Where rank 1—is lowest in sweetness and rank 6—is highest in sweetness. Panelists cleansed their palates by rinsing with water, eating a cracker and waiting for an interval of 10 minutes. All samples were tasted at ambient temperatures. Each sample was tasted twice.
R index analysis was utilized to determine the degree of difference between a test and control sample. It indicates the level of discrimination between two samples. […] A positive control sample was used to assess the ability of the panelists to accurately discriminate sweetness perception differences from the negative control.

For assay [2] the test system is unchanged. The experiment in a line: Two-alternative forced choice sip and spit method (2AFC). Conditions: compound 20 ppm with positive 2AFC. The protocol:
The effect of the test compounds on the perception of the sweet taste of an aqueous solution of sweetener in humans was evaluated using a two-alternative forced choice “sip and spit” method (2AFC).
as §1
Compounds were first prepared as a 500-fold concentrated stock solution in 100% ethanol. These concentrated stocks were then added to the aqueous sweetener solutions to result in a final ethanol concentration of 0.2%. The control (positive and negative) samples were also normalized to 0.2% ethanol. This level of ethanol was not seen to contribute any perceived sweetness.
The 2AFC test used for compound evaluation was a blind and randomized test where taste panelists (n=15) evaluate a pair of sweetener solutions at a time—one sample contains aqueous sweetener solution plus compound (i.e. test) while the other contains aqueous sweetener solution at higher concentration without compound (i.e. positive control). Each test sample was compared against a positive control. For example, if the test sample contained 1× sweetener concentration with compound (e.g. 5% sucrose with compound), the positive control sample contained a 1.1× sweetener concentration (e.g. 5.5% sucrose without compound).
Panelists were instructed not to eat or drink (except water) for at least 1 h before the test. During the test, panelists were instructed to sip each sample, swirl it around their mouth and then expectorate. After tasting each sample in the pair, panelists were instructed to record the sample that is “sweeter” in taste. Panelists cleansed their palates by rinsing with water, eating a cracker and waiting for an interval of about 5 minutes. Each pair was tasted twice. All samples were tasted at ambient temperatures. Data were analyzed using binomial probabilities.
Approximate levels of sweetness enhancement in column 5 of Table 2 were calculated as follows:
Approximate levels of sweetness enhancement=Sweetener concentration of positive control surpassed by the test sample, divided by sweetener concentration for compound-containing sample (e.g. 1.15×=5.75% sucrose/5% sucrose).

Assay [3] concerns perception of sweet taste, in an aqueous solution. The experiment in a line: Inherent sweetness assessment, difference from control sip and spit method. Conditions: compound 10 ppm in water, no sweetener. The protocol: The aqueous sucrose solutions were prepared by adding, sucrose (by weight), to water to achieve the desired concentration.
Compounds were first prepared as a 500-fold concentrated stock solution in 100% ethanol. These concentrated stocks were then added to water to result in a final ethanol concentration of 0.2%. The control (including positive control) samples were also normalized to 0.2% ethanol. This level of ethanol was not seen to contribute any perceived sweetness.
The intrinsic effect of test compounds on the perception of sweet taste, in an aqueous solution, in humans was evaluated using a difference from control “sip and spit” method employing a verbal category scale.
In this method, panelists (n=12) evaluate one pair of samples at a time—one sample contains water plus compound (i.e. test) while the other contains water without compound (i.e. control). Panelists were instructed to first taste the un-blinded control followed by the test sample and asked to rate the size of sweetness difference between the test and control sample, using a 6 point verbal category scale:
Verbal category scale • No difference • Slight difference • Slight/moderate difference • Moderate difference • Moderate/large difference • Very large difference
4 blinded controls comprising of one negative control (0% sucrose) and 3 positive control samples (0.5% sucrose, 1% sucrose and 2% sucrose) were also included as part of the test to evaluate the ability of panelists to rank the difference in sweetness perception between 0.5% sucrose, 1% sucrose and 2% sucrose compared to 0% sucrose control.
Panelists were instructed not to eat or drink (except water) for at least 1 h before the test. During the test, panelists were instructed to sip each sample, swirl it around their mouth and then expectorate. Panelists cleansed their palates by rinsing with water, eating a cracker and waiting for an interval of about 5 minutes. All samples were tasted at ambient temperatures.
The verbal category response for each test sample was converted into an integer numerical value, from 1 to 6 (e.g. no difference=1 and very large difference=6). Total numbers of panelist responses per integer value were plotted as a histogram. An assessment was then made, comparing mean, mode of the numerical value, and the distribution of the histogram plots, for test samples as compared to that of the positive (0.5% sucrose, 1% sucrose and 2% sucrose) and negative control (0% sucrose) sample. Inherent sweetness levels are then correlated to the positive controls as discrete bins: • Bin 1: 0% sucrose • Bin 2: >0% sucrose—<0.5% sucrose • Bin 3: 0.5% sucrose • Bin 4: >0.5% sucrose—<1% sucrose • Bin 5: 1% sucrose • Bin 6: >1% sucrose—<2% sucrose • Bin 7: 2% sucrose

The mark [4] stands for this setting: compound 10 ppm, significant at R index ≧60.

On to `O=C1CC(c2cccc(O)c2)Oc2cccc(O)c21` (centres unmarked) [Compound 12, 5-hydroxy-2-(3-hydroxyphenyl)chroman-4-one], for which the “R Index Score” value in assay [1] (compound 2.5 ppm) amounted to 62.
In the case of `COc1ccc(C2CC(=O)c3c(O)cc(F)cc3O2)cc1O` (centres unmarked) [Compound 15, 7-fluoro-5-hydroxy-2-(3-hydroxy-4-methoxyphenyl)chroman-4-one], the “Fold increase in perceived sweetness” value in assay [2] (test sample 4% fructose) is recorded as greater than 1.1X. Besides, the “Correlated Inherent Sweetness Assessment” value in assay [3] turned out to be 0% sucrose.
As to `O=C1CC(c2ccc(O)cc2)Oc2cccc(O)c21` (centres unmarked) [Compound 7, 5-hydroxy-2-(4-hydroxyphenyl)chroman-4-one], the “R Index Score” value in assay [1] (setting [4]) was found to be 71.
The same measure, in the same setting: the result for `COc1ccc(C2CC(=O)c3c(O)cc(C)cc3O2)cc1O` (centres unmarked) [Compound 6, 5-hydroxy-2-(3-hydroxy-4-methoxyphenyl)-7-methylchroman-4-one] reads 82.
Regarding `CCCOc1ccc(C2CC(=O)c3c(O)cc(O)cc3O2)cc1O` (centres unmarked) [Compound 5, 5,7-dihydroxy-2-(3-hydroxy-4-propoxyphenyl)chroman-4-one], in assay [2] (test sample 4% fructose), the “Fold increase in perceived sweetness” value is greater than 1.1X.
For `COc1cc(C2CC(=O)c3c(O)cccc3O2)ccc1C` (centres unmarked) [Compound 16], the “Fold increase in perceived sweetness” value in assay [2] (test sample 5% sucrose) is reported as greater than 1.1X.
Take `COc1ccc(C2CC(=O)c3c(O)cc(OCCCS(=O)(=O)O)cc3O2)cc1O` (centres unmarked) [Compound 14, 3-((5-hydroxy-2-(3-hydroxy-4-methoxyphenyl)-4-oxochroman-7-yl)oxy)propane-1-sulfonic acid potassium salt]: in assay [2] (test sample 4% fructose), the “Fold increase in perceived sweetness” value is greater than 1.1X.
As for `O=C1CC(c2ccc(O)c(O)c2)Oc2cccc(O)c21` (centres unmarked) [Compound 8, 2-(3,4-dihydroxyphenyl)-5-hydroxychroman-4-one], the “R Index Score” value in assay [1] (setting [4]) is 69.
`COc1ccc(C2CC(=O)c3c(O)cc(OCCCC(=O)O)cc3O2)cc1O` (centres unmarked) [Compound 4, 4-((5-hydroxy-2-(3-hydroxy-4-methoxyphenyl)-4-oxochroman-7-yl)oxy)butanoic acid]: the “Fold increase in perceived sweetness” value in assay [2] (test sample 4% fructose) and in assay [2] (test sample 5% sucrose) was greater than 1.1X each time.
In the case of `O=C1CC(c2cccc(O)c2)Oc2cc(O)cc(O)c21` (centres unmarked) [Compound 10, 5,7-dihydroxy-2-(3-hydroxyphenyl)chroman-4-one], the “R Index Score” value in assay [1] (setting [4]) came out at 65.
On the same count and under the same terms, to `COC(=O)c1cccc(C2CC(=O)c3c(O)cc(O)cc3O2)c1` (centres unmarked) [Compound 13, methyl 3-(5,7-dihydroxy-4-oxochroman-2-yl)benzoate] belongs 61.
In the case of `COc1ccc(C2CC(=O)c3c(Cl)cc(O)cc3O2)cc1O` (centres unmarked) [Compound 17], the “Fold increase in perceived sweetness” value in assay [2] (test sample 4% fructose) is reported as 1.1X.
